Laboratory results published in patent US8299083B2, “PDE5 inhibitor compositions and methods for treating cardiac indications” (The Johns Hopkins University, priority 2004, dated 2012).
Read-outs that look alike come from different tables or passages of the source.

Key:
[1] = Plasma sildenafil levels in healthy volunteers; type: in vivo; conditions: human, po, 100 mg, 100 mg oral
From the text: Forty healthy volunteers were recruited from the general population in response to advertisements posted in the surrounding community. Subjects were screened by medical history, physical examination, and transthoracic echocardiogram. Individuals with heart disease, atherosclerosis, hypertension, diabetes mellitus, pulmonary hypertension, renal or hepatic disease, smoking, pregnancy, or under treatment with nitrates, adrenergic-blocking drugs, or medicines known to interfere with sildenafil pharmacokinetics were excluded. […] All subjects were instructed to fast for >6 hours prior to study. […] Intravenous dobutamine (5 μg/kg/min) was then administered for 5 minutes to achieve a stable response, and measurements repeated (D1). Dobutamine was discontinued, and 15 minutes provided to return to the baseline state. […] Data were again recorded for a second baseline (B2), and during a second dobutamine infusion (D2) using the identical protocol as for the first test. Plasma sildenafil and its metabolite […] measured in each subject by liquid chromatography and mass spectrometry (SFBC Analytical Labs, North Wales, Pa.).

[2] = test system: C57BL/6 mice, pressure overload by transverse aortic constriction; assay: Serial echocardiography in conscious mice with transverse aortic constriction (TAC); type: in vivo, mouse; conditions: for EF (ejection fraction) / HR (heart rate) / LV Dim (dia) / LV Dim (sys) / LV Mass (estimated, truncated ellipsoid model) / Wall Thickness: sildenafil treated
PKG-1 = assay: Whole heart PKG-1 activity; type: in vivo, mouse; conditions: chronic treatment
Experimental: (§1) PI3Kα activity was assessed by Elisa assay following immunoprecipitation of PI3K (Seize X IP Kit, Pierce) using a p85α monoclonal antibody (Cell Signaling), with activity measured by fluorescence polarization (Molecular Devices, Perkin-Elmer Victor 3 plate reader). Akt activity (IP with s473-pAkt Ab, GSK-3 fusion protein substrate) was performed using a commercial kit (Cell Signaling Technology, Beverly, Mass.). PKG-1 activity was assayed by calorimetric analysis, CycLex (Clinisciences, Montrouge, FR) from whole heart lysates.

ERK1/2 = ERK1/2 activation in TAC hearts (Western blot); type: in vivo, mouse
Experimental: (§2) Protein was prepared from snap-frozen heart tissue using extraction buffer as described previously^90. Antibodies included calcineurin (1:2000 dilution, BD Transduction Laboratories (San Diego, Calif.), GSK3β, Ser9-phospho-GSK313, Akt, Ser473-phospho-Akt, ERK, Thr202/Thr204-phospho-ERK (1:1000 dilution, Cell Signaling Technology, Beverly, Mass.). Primary antibody binding was visualized by horse radish peroxidase-conjugated secondary antibodies and enhanced chemiluminescence (Pierce, Rockford, Ill.).

Akt = Akt activation in TAC hearts (Western blot, activity assay); type: in vivo, mouse; conditions: 1 and 9 week TAC
Experimental: as §2, §1

SMILES: CCCc1nn(C)c2c(=O)[nH]c(-c3cc(S(=O)(=O)N4CCN(C)CC4)ccc3OCC)nc12 [sildenafil]
- concentration at 75 min ([1]; subjects excluded from analysis, read-out: plasma concentration, mean of four subjects with very low levels): 3.6 nM
- concentration at 75 min ([1]; subjects excluded from analysis, read-out: plasma concentrations, each of four subjects with very low levels): < 6 nM
- concentration at 75 min ([1]; Free plasma sildenafil concentration, 75 minutes after dose): 44 ± 29 nM
- serial echocardiography, established hypertrophy ([2]; 1-week TAC, then 2 weeks treatment): gradual decline in LV mass and wall thickness, with preservation of systolic ejection
- EF (ejection fraction) ([2]; Control (sham)): 96.5 ± 0.2%
- HR (heart rate) ([2]; Control (sham)): 634 ± 9 min⁻¹
- LV Dim (dia) ([2]; Control (sham)): 2.87 ± 0.09 mm
- LV Dim (sys) ([2]; Control (sham)): 0.89 ± 0.05 mm
- LV Mass (estimated, truncated ellipsoid model) ([2]; Control (sham)): 59.1 ± 5.6 mg
- Wall Thickness ([2]; Control (sham)): 0.71 ± 0.02 mm
- EF (ejection fraction) ([2]; TAC-3 wks): 93.4 ± 1.1 %
- HR (heart rate) ([2]; TAC-3 wks): 595 ± 7 min⁻¹
- LV Dim (dia) ([2]; TAC-3 wks): 3.09 ± 0.06 mm
- LV Dim (sys) ([2]; TAC-3 wks): 1.17 ± 0.08 mm
- LV Mass (estimated, truncated ellipsoid model) ([2]; TAC-3 wks): 82.2 ± 5.0 mg
- Wall Thickness ([2]; TAC-3 wks): 0.82 ± 0.02 mm
- EF (ejection fraction) ([2]; TAC-6 wks): 74.9 ± 7.1 %
- HR (heart rate) ([2]; TAC-6 wks): 617 ± 18 min⁻¹
- LV Dim (dia) ([2]; TAC-6 wks): 3.67 ± 0.24 mm
- LV Dim (sys) ([2]; TAC-6 wks): 2.24 ± 0.37 mm
- LV Mass (estimated, truncated ellipsoid model) ([2]; TAC-6 wks): 115.6 ± 14.2 mg
- Wall Thickness ([2]; TAC-6 wks): 0.86 ± 0.03 mm
- EF (ejection fraction) ([2]; TAC-9 wks): 71.7 ± 9.9 %
- HR (heart rate) ([2]; TAC-9 wks): 608 ± 25 min⁻¹
- LV Dim (dia) ([2]; TAC-9 wks): 4.14 ± 0.36 mm
- LV Dim (sys) ([2]; TAC-9 wks): 2.54 ± 0.57 mm
- LV Mass (estimated, truncated ellipsoid model) ([2]; TAC-9 wks): 142.5 ± 21.5 mg
- Wall Thickness ([2]; TAC-9 wks): 0.86 ± 0.03 mm
- whole heart PKG-1 activity (PKG-1; TAC hearts): more than doubled PKG-1 activity
- whole heart PKG-1 activity (PKG-1; sham controls): no effect on activity
- ERK1/2 activation (phospho/total) (ERK1/2; 1-week TAC): suppressed
- ERK1/2 activation (phospho/total) (ERK1/2; 9-weeks TAC): no demonstrable effect
- TAC-increased Akt activity (Akt): suppressed this response at both time points to near baseline
